Results from patent US6555538B2, “5-arylsulfonyl-imidazo[1′,2′:1,6]pyrido[2,3-b]pyrazine-6-amines and related compounds” (Pfizer Inc, priority 1999, dated 2003).

SMILES | melting point [°C]
Cc1ccc(S(=O)(=O)c2c(N)c3nccn3c3nccnc23)cc1 [Example 1, 5-[(4-Methylphenyl)sulfonyl]-imidazo[1′,2′:1,6]pyrido[2,3-b]pyrazin-6-amine] | 294 to 295
Cc1ccc(S(=O)(=O)c2c(N)c3nncn3c3nccnc23)cc1 [Example 2, 5-[(4-methylphenyl)sulfonyl]-[1,2,4]triazolo[4′,3′:1,6]pyrido[2,3-b]pyrazin-6-amine] | > 300
CCc1ccc(S(=O)(=O)c2c(N)c3nccn3c3nccnc23)cc1 [Example 3, 5-[(4-ethylphenyl)sulfonyl]-imidazo[1′,2′:1,6]pyrido[2,3-b]pyrazin-6-amine] | 267.5 to 268.5
CC(C)c1ccc(S(=O)(=O)c2c(N)c3nccn3c3nccnc23)cc1 [Example 4, 5-[(4-isopropylphenyl)sulfonyl]-imidazo[1′,2′:1,6]pyrido[2,3-b]pyrazin-6-amine] | 241 to 244
CCCc1ccc(S(=O)(=O)c2c(N)c3nccn3c3nccnc23)cc1 [Example 5, 5-[(4-propylphenyl)sulfonyl]-imidazo[1′,2′:1,6]pyrido[2,3-b]pyrazin-6-amine] | 231 to 232
COc1ccc(S(=O)(=O)c2c(N)c3nccn3c3nccnc23)cc1 [Example 6, 5-[(4-methoxyphenyl)sulfonyl]-imidazo[1′,2′:1,6]pyrido[2,3-b]pyrazin-6-amine] | 269 to 270
Nc1c(S(=O)(=O)c2ccc(O)cc2)c2nccnc2n2ccnc12 [Example 8, 5-[(4-Hydroxyphenyl)sulfonyl]-imidazo[1′,2′:1,6]pyrido[2,3-b]pyrazin-6-amine] | > 300
